Assay results as given in patent publication US9492428B2, “Compounds, compositions, pharmaceutical compositions, and methods of use” (University of Louisville Research Foundation, Inc., priority 2011, dated 2016).
≈ marks a conversion by molar mass, not a printed value.

What was measured:
DU145 cells [1] = test: MTT assay (cytotoxicity / cell proliferation) in DU145; format: cell-based, human
Procedure: FIG. 4. Bioassay of compound I-1, compound I-2, and compound I-3. SPA14-3-2 is pure compound I-2. SPA14-3-3 is pure compound I-3. SPA14-3-4 is pure compound I-1. MTT assays using compound I-1, compound I-2, and compound I-3 against DU145 and RWPE-1 cells lines.
FIG. 8. Cell proliferation assay. (A) DU145 or PC3 prostate cancer were plated at a density of 1,500 cells per well in 96-well plates and incubated 18 hours at 37° C. to allow adherence. They were untreated or treated by addition of different concentrations of compound I-1 (which were added directly to the medium) or vehicle (DMSO), and proliferation was measured using a 3-(4,5-dimethylthiazol-2-yl)-2,5-diphenyltetrazolium bromide MTT assay after 3 days of treatment. Points, mean of triplicate normalized samples to vehicle sample; bars, SE. (B) GI50 after 3 days of treatment. (C) Prostate cancer cells (DU145 or PC3) or a non-malignant epithelial cells (RWPE-1) were plated at a density of 1,000 cells per well in 96-well plates and incubated 18 hours at 37° C. to allow adherence. They were untreated or treated by addition of different concentrations of compound I-1 (added directly to the medium) or vehicle (DMSO), and proliferation was by MTT assay after 5 days of treatment. Points, mean of triplicate normalized samples to vehicle sample; bars, SE.
Isolation, NMR, and X-ray crystallographic analyses. Leaves, stems, and few fruits of Physalis angulate L (Solanaceae) were collected in Rio Domingusa. Kuith/Barranquita, Amazonas Department, Northeastern Peru, and identified by the team led by Walter Lewis (collection voucher 18597, Ext. 1159). Dried and grounded material (46 g) was extracted with ethanol (1 L, 95%) for 7 days. The evaporated crude extract (6.26 g) was denoted SPA. An aliquot (1.5 g) of SPA was partitioned between dichloromethane (40 mL) and water (40 mL), affording two fractions: organic (SPA1, 500 mg) and aqueous (SPA2, 600 mg). All MTT assays were performed as described in Bates et al. “G-Rich Oligonucleotides for Cancer Treatment” Chapter 21 of Methods in Molecular Biology, Gene Therapy of Cancer, Wolfgang Walther and Ulrike S. Stein (eds.), Vol. 542, 2009, Humana Press. […] SPA14-3 (30 mg) was treated on an HPLC using a reverse phase C18 column eluted in gradient mode of methanol and water (from 80% methanol to 100% methanol) and detected at 254 nm, yielding SPA14-3-1 (0 mg), SPA14-3-2 (1.2 mg of pure compound I-2), SPA14-3-3 (4.1 mg of pure compound I-3), and SPA14-3-4 (18 mg of pure compound I-1).
General Experimental Procedure. Compound I-1 was isolated as described in Example Set 1, above. For samples of compound I-1 used in Example Set 2, HPLC and NMR indicated a purity of at least 95%. All experiments described in Example Set 2 were repeated at least two or three times. […]

DU145 cells [2] = test: Clonogenic assay in DU145; format: cell-based, human
Procedure: FIG. 7. Clonogenic assays in prostate cancer cells treated with compound I-1. Prostate cancer cells, DU145 (A) or PC3 (B), were plated at very low density in 6-well plates and incubated 18 h at 37° C. Cells were treated by addition of various concentrations of compound I-1 or with an equivalent volume of vehicle (DMSO), or were left untreated. After 10 days of treatment, cells were washed with cold PBS, fixed with paraformaldehyde, and stained with crystal violet solution.
Clonogenic Assay. Cells in fresh complete medium were plated at very low density (3×10^2 per well) into six-well plates for 18 h. After complete adhesion, cells were treated with compound I-1 by adding directly to the medium to give the concentration indicated in the figures. Cells were allowed to grow until visible colonies formed (10 days). Cell colonies were fixed with 4% paraformaldehyde in PBS (phosphate-buffered saline), stained with 0.25% crystal violet in 25% methanol, washed and air-dried.

C[C@@H]1CC[C@H]2C3C(O[C@]4([C@]5(O)CC6(C)C(=O)OC5C[C@@]6(C)O)CC[C@@]31O4)[C@H]1O[C@]13CC=CC(=O)[C@]23C (stereo partly shown) [I-1]
GI50 (DU145 cells [1]; Homo sapiens, DU-145, MTT assay, FIG. 4, read-out: GI50 against DU145): ~1.5 µg/mL (≈ 3 µM)
concentration of maximum antiproliferative activity (DU145 cells [1]; after three days of treatment): 10 µM
effect on colony formation (DU145 cells [2]; 2.5 μM, 10 days): Inhibitory effects
concentration that blocked the capacity of single cancer cells to generate colonies (DU145 cells [2]; 10 days of treatment): ≥ 5 µM
